Laboratory results: patent US20240398844A1, “PHENYLCOUMARINS FOR TREATING INFLAMMATION” (Ohio State Innovation Foundation, priority 2021, published 2024)
“Also recorded” adds a separate entry of the source.

Tests used:
PEPCK = assay: Diabetic zebrafish Western blot, PEPCK expression; format: in vivo; conditions: FIG. 8; for PEPCK expression, efficacy of lower doses: diabetic zebrafish, 5 and 1 μM; for PEPCK expression, dose dependence: diabetic zebrafish, 10, 5, and 1 μM
NFκB p65 = assay: Diabetic zebrafish Western blot, NFκB expression; format: in vivo; conditions: for NFκB p65 expression (Western blot band density): diabetic zebrafish, 10, 5, and 1 μM (rosiglitazone 10 μM), FIG. 10
Procedure: Alloxan-induced diabetic zebrafish were treated with compounds for immunoblot to validate the newly developed animal model, determine the antidiabetic potential of natural product leads, evaluate glucose metabolism, and discover possible mechanisms of action.
At 72 hpf, naturally dechorionated zebrafish were sorted into a 24-well microplate with 10 fish per well. Type 2 diabetes was induced with the diabetogenic agent alloxan at a dose of 0.5 mg/mL in system water for 3 hours. […] After 3 hours of treatment with natural product samples, 10 mg/mL D-glucose was administered in system water for 30 minutes, followed by 1 hour in fresh system water to metabolize the glucose and natural product leads. Upon completion of the 4-phase treatment cycle, zebrafish treatment groups were snap frozen into individual microcentrifuge tubes on dry ice, stored overnight at −80° C., thawed, homogenized with 2 μL PBS per animal, and centrifuged at 4° C. for 1 hour at 17,000 rpm. Protein content of homogenate supernatant was determined using the Pierce BCA Protein Assay kit (Pierce Biotechnology) and bovine serum albumin (BSA) standard curve. Absorbance of protein solutions from zebrafish homogenates and serial dilutions of the BSA standard were measured at 544 nm, using a FLUOstar Optima plate reader (BMG Labtechnologies GmbH, Inc.). Homogenates were analyzed by Western blot. Equal amounts of protein (20 μg) were combined with 4× lithium dodecyl sulphate (LDS) loading buffer (NuPAGE, Life Technologies, Carlsbad, CA, USA), brought to volume (15 μL) with PBS, and heated to 95° C. for 5 minutes. Proteins were resolved using NuPAGE Bis-Tris 4-12% gradient sodium dodecyl sulfate polyacrylamide gel electrophoresis (SDS-PAGE) gels together with SeeBlue Plus2 Pre-Stained Standard Ladder (Life Technologies).
Electrophoresis was performed using NuPAGE MES SDS Running Buffer and XCell SureLock Mini-Cell Electrophoresis System (Life Technologies). Separated proteins were transferred from the gel to a polyvinylidene fluoride (PVDF) membrane using tris buffered saline with Tween-20 (TBST) buffer. The blots were blocked in 3% BSA in TBST and subsequently probed using primary antibodies (1:1000 in 1% BSA in TBST) against each target overnight (Table 1). The secondary, horseradish peroxidase (HRP) conjugated antibodies (1:2000) were obtained from Santa Cruz Biotechnology Inc., (Santa Cruz, CA, USA). Conjugated antibodies were detected using SuperSignal West Femto chemiluminescent substrate from Pierce Biotechnology. Western blots were visualized, and images captured using a luminometer and LumiAnalyst 3.0 software (Boehringer-Mannheim, Mannheim, Germany). Band density was quantified for proteins of interest using ImageJ Gel Analysis.
In the case of duplicate blots, the band density results were expressed in bar graphs as the mean±standard error of the mean (SEM) of two independent experiments. Due to the labor- and time-intensive aspect of Western blot analysis with multiple target proteins, a maximum of two independent immunoblot experiments were performed per compared sample set. […] Additionally, treatment groups were also evaluated versus the diabetic, untreated control group for significance by Student's f-test and indicated in the bar graphs with p values represented by *p<0.05, **p<0.01, and ***p<0.001. […]

PPAR-γ = target: T1, PPAR-γ (Homo sapiens, UniProt P37231); assay: PPAR-γ ELISA Assay in HeLa cells (in vitro PPAR-γ assay); format: cell-based; conditions: 50 μg/mL; for PPAR-γ activity in the in vitro assay (in words): versus positive control rosiglitazone
T1 construct: endogenous in cells; host or cells: HeLa
T1 sequence (P37231 1-505): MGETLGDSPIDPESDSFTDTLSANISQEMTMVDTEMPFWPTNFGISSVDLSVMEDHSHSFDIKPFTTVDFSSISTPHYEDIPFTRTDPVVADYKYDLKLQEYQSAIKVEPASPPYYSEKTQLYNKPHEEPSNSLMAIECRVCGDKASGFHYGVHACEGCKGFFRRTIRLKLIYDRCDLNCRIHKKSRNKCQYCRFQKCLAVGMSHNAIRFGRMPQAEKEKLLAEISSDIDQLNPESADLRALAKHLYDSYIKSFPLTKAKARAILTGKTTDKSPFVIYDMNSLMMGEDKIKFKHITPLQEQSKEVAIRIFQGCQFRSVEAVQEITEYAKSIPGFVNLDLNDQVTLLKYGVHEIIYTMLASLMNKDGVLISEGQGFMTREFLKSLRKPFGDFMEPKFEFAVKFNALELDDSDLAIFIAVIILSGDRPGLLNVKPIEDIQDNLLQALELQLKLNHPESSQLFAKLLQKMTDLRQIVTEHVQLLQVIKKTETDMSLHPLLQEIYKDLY
Procedure: In addition to the Western blot, the diverse library was also screened in the in vitro PPAR-γ assay. […] The compounds were tested at 50 μg/mL according to the protocol detailed in section 3.2.3.

NFκB = NFκB in vitro assay, NFκB translocation to the nucleus in HeLa cells; format: cell-based; conditions: for IC50: inhibiting NFκB translocation to the nucleus, tested at 50, 5, 0.5, and 0.05 μM
Procedure: Following derivatization and purification, compound 40 was tested in the NFκB and PPAR-Y in vitro assays, as well as the diabetic zebrafish Western blot. The three 4-phenylcoumarin glycoside natural products from the diverse library (22, 23, and 24) and the isopropyl ether derivative (40), were evaluated for PPAR-γ activity at 50 μg/mL in HeLa cells according to a PPAR-γ ELISA Assay (Table 4). […] NFκB Assay (Table 4).
As an excellent lead, 24 was derivatized to yield 40, and both compounds were evaluated in the NFκB and PPAR-γ in vitro assays (Table 4). […] To investigate 24 and 40 in a live, metabolizing system with appropriate hormone responses, the compounds were tested (at 10, 5, and 1 μM) in the larval diabetic zebrafish assay.

SMILES	PEPCK expression, efficacy of lower doses (PEPCK)	PEPCK expression, dose dependence (PEPCK)	NFκB expression (Western blot) (NFκB p65; diabetic zebrafish, 10 μM, FIG. 5)	NFκB p65 expression (Western blot band density) (NFκB p65)	% Activation PPAR-γ (PPAR-γ; Table 2) [%]	% Activation PPAR-γ (PPAR-γ; Table 4) [%]	PPAR-γ activity in the in vitro assay (in words) (PPAR-γ)	IC50 (NFκB) [µM]	activation at 50 µg/mL (PPAR-γ; Table 4) [%]	times less effective at inhibiting NFκB translocation than parent compound 24 (NFκB) [times]
COc1cc(O[C@@H]2O[C@H](CO[C@@H]3OCC(O)(CO)[C@H]3O)[C@@H](O)[C@H](O)[C@H]2O)c2c(-c3ccc(O)c(O)c3)cc(=O)oc2c1 (stereo partly drawn) [Compound 24, 5-O-[β-D-apiofuranosyl-(1→6)-β-D-glucopyranosyl]-7-methoxy-3′,4′-dihydroxy-4-phenylcoumarin]	not effective	dose-dependent increase in PEPCK expression	excellent inhibition of NFκB expression	opposite dose-dependent effect	101	101	top performers	3.95		
COc1cc(O[C@@H]2OCC(O)(CO[C@@H]3OC(CO)[C@@H](O)C(O)C3O)C2O)c2c(-c3ccc(OC(C)C)c(O)c3)cc(=O)oc2c1 (single isomer, unassigned) [Compound 40]	not effective	dose-dependent increase in PEPCK expression; also recorded: slightly less active than the parent compound		significantly inhibit NFκB expression versus the untreated, diabetic control			loss of all activity	10.2	0	2.6
